Common to all, as to format: cell-based
Experiment [1] concerns KMS-28BM cells (myeloma cell line). The experiment can be described thus: Cell death inducing effect on KMS-28BM cells, trypan blue staining. The conditions noted are these: KMS-28BM (myeloma), cell viability. How it is done:
KMS-28BM cells (myeloma cell line) were cultured under 5% CO2 at 37° C. The culture medium used RPMI-1640 medium with 100 μg/mL penicillin, 100 U/mL streptomycin and fetal bovine serum. KMS-28BM cells were seeded into 96-well plates and incubated with each concentration of the compounds was added, and cell viability was determined by the trypan blue staining.
(§1) For controls, only 0.5% DMSO (diluted in PBS) used to dissolve the compounds was added. For each concentration, each bar line is indicated by an arrow with the sign “n, a, 1, 2, 3, 4, 5, 6, 7, 8, 9, 10, 11, 12” from left to right. The “1, 3, 5, 7, 9, 11” are omitted from the graph, but the sign “1” shall be indicated by an arrow between the signs “a” and “2”, the sign “3” between the signs “2” and “4”, and other odd numbers shall likewise be indicated by arrows between even numbers before and after.
(§2) The sign “n” is the norathyriol (formula (n)) administration group, the sign “a” is the mangiferin 8a (formula (a)) administration group, the sign “1” is the yk-7 (formula (1)) administration group, the sign “2” is the yk-8-1 (formula (2)) administration group, the sign “3” is the yk-8-3 (formula (3)) administration group, the sign “4” is the M7 (formula (4)) administration group, the sign “5” is the M9 (formula (5)) administration group, the sign “6” is the M11 (formula (6)) administration group, the sign “7” is the M12 (formula (7)) administration group, the sign “8” is the M14 (formula (8)) administration group, the sign “9” is the M15 (formula (9)) administration group, the sign “10” is the M16 (formula (10)) administration group, the sign “11” is the M18 (formula (11)) administration group, the sign “12” is the M19 (formula (12)) administration group, respectively. The IC50 values for each compound is also listed in the upper right corner of the figure.

For experiment [2], the system named is Raji cells (burkitt lymphoma cell line). In words: Cell death inducing effect on Raji cells, trypan blue staining. Particulars: Raji (Burkkit lymphoma), cell viability. The method, then: Raji cells (burkitt lymphoma cell line) were cultured under 5% CO2 at 37° C. The culture medium used RPMI-1640 medium with 100 μg/mL penicillin, 100 U/mL streptomycin and fetal bovine serum. Raji cells were seeded into 96-well plates and incubated with each concentration of the compounds was added, and cell viability was determined by the trypan blue staining.
as §1, §2

The test system of experiment [3] is RPMI8226 cells (myeloma cell line). The experiment can be described thus: Cell death inducing effect on RPMI8226 cells, trypan blue staining. How it is done: RPMI8226 cells (myeloma cell line) were cultured under 5% CO2 at 37° C. The culture medium used RPMI-1640 medium with 100 μg/mL penicillin, 100 U/mL streptomycin and fetal bovine serum. RPMI8226 cells were seeded into 96-well plates and incubated with each concentration of the compounds was added, and cell viability was determined by the trypan blue staining.
as §1, §2

Experiment [4] has as its system RPMI1788 cells (human normal B cell line). The experiment can be described thus: Cell death inducing effect on RPMI1788 normal B cells, trypan blue staining. The conditions noted are these: RPMI1788 (normal B lymphocyte), cell viability. The method, then:
RPMI1788 cells (human normal B cell line) were cultured under 5% CO2 at 37° C. The culture medium used RPMI-1640 medium with 100 μg/mL penicillin, 100 U/mL streptomycin and fetal bovine serum. RPMI1788 cells were seeded into 96-well plates and incubated with each concentration of the compounds was added, and cell viability was determined by the trypan blue staining.
as §1, §2

Experiment [5] relates to L363 cells (myeloma cell line). In words: Cell death inducing effect on L363 cells, trypan blue staining. How it is done: L363 cells (myeloma cell line) were cultured under 5% CO2 at 37° C. The culture medium used RPMI-1640 medium with 100 μg/mL penicillin, 100 U/mL streptomycin and fetal bovine serum. L363 cells were seeded into 96-well plates and incubated with each concentration of the compounds was added, and cell viability was determined by the trypan blue staining.
as §1, §2

The subject of experiment [6] is RPMI8226/B cells (bortezomib-resistant myeloma cell line). In words: Cell death inducing effect on RPMI8226/B cells, trypan blue staining. Particulars: RPMI8226/B (myeloma; bortezomib resistance), cell viability. The method, then:
RPMI8226/B cells (bortezomib-resistant myeloma cell line) were cultured under 5% CO2 at 37° C. The culture medium used RPMI-1640 medium with 100 μg/mL penicillin, 100 U/mL streptomycin and fetal bovine serum. RPMI8226/B cells were seeded into 96-well plates and incubated with each concentration of the compounds was added, and cell viability was determined by the trypan blue staining.
as §1, §2

Experiment [7] has as its system CD20. The experiment can be described thus: CD20 expression in KMS-28BM cells, flow cytometry. Particulars: 10 days, concentration lower than the IC50 (0.005-50 μM), compared to the positive control. How it is done:
As a control, compounds untreated KMS-28BM cells were seeded in 75 cm^2 flasks and incubated for 10 days at 37° C. and 5% CO2. KMS-28BM cells were seeded into 75 cm^2 flasks and pre-cultured for 4 h. After incubation, KMS-28BM cells were treated with […], 0.05 μM M9, 0.1 μM yk-7, 0.1 μM yk-8-3, 50 μM yk-8-1, 0.5 μM M11, […], 0.005 μM M14, 0.005 μM M15, 0.005 μM M16, 0.5 μM M18, and 0.5 μM M19 at final concentrations, and incubated for 10 days at 37° C. and 5% CO2. This added amount is a concentration lower than the IC50 of the above compounds for KMS-28BM cells. After 10 days of incubation, cells were stained with anti-CD20 antibody, a B cell marker, and CD20 expression was measured using BD LSRFortessa. CCRF-SB cells were used as CD20-positive controls.
Results are shown in FIG. 21, FIG. 22, FIG. 23, and FIG. 24. The horizontal axis represents the expression level of CD20 and the vertical axis represents the number of cells.
(In general: A flow cytometer gives signals particle by particle.)

Experiment [8] concerns CD20. The experiment can be described thus: CD20 expression in L363 cells, flow cytometry. The conditions noted are these: 10 days, concentration lower than the IC50 (0.005-50 μM), compared to the positive control. How it is done:
As a control, compounds untreated L363 cells were seeded in 75 cm^2 flasks and incubated for 10 days at 37° C. and 5% CO2. L363 cells were seeded into 75 cm^2 flasks and pre-cultured for 4 h. After incubation, L363 cells were treated with 0.1 μM M7, 0.05 μM M9, 0.1 μM yk-7, 0.1 μM yk-8-3, 50 μM yk-8-1, 0.1 μM M11, 0.01 μM M12, 0.005 μM M14, 0.005 μM M15, 0.005 μM M16, 1 μM M18, and 1 μM M19 at final concentrations, and incubated for 10 days at 37° C. and 5% CO2. This added amount is a concentration lower than the IC50 of the above compounds for L363 cells. After 10 days of incubation, cells were stained with anti-CD20 antibody, a B cell marker, and CD20 expression was measured using BD LSRFortessa. CCRF-SB cells were used as CD20-positive controls.
Results are shown in FIG. 29, FIG. 30, FIG. 31, and FIG. 32. The horizontal axis represents the expression level of CD20 and the vertical axis represents the number of cells.

Where [9] appears, read: Homo sapiens, RPMI-8226, cell viability.
Where [10] appears, read: Homo sapiens, L-363, cell viability.

These results are taken from patent US20260200903A1, “PHARMACEUTICAL COMPOSITION FOR AMELIORATING MALIGNANT DISEASES” (KINKI UNIVERSITY, priority 2020, published 2026).

In general, IC50 refers to the concentration needed to halve the response being measured. Read a low IC50 as higher potency. Consider “1,2′,3′,4′,6-penta-O-propionylmangiferin [Compound 8a, reference compound]”, for which the IC50 is 2170 nM in experiment [1]; 4150 nM in experiment [2]; 7090 nM in experiment [3] (cell viability); above 100000 nM in experiment [4]; 5600 nM in experiment [5] (cell viability); 892 nM in experiment [6].
Turning to `CCC(=O)OC[C@H]1O[C@@H](c2c(OC(=O)CC)cc3oc4cc(OC(=O)CC)c(OC(=O)CC)cc4c(=O)c3c2OC(=O)CC)[C@H](OC(=O)CC)[C@@H](OC(=O)CC)[C@@H]1OC(=O)CC` [Compound M7, 1,3,2′,3′,4′,6,6′,7-octa-O-propionylmangiferin], the IC50 in experiment [1] is 770 nM; in experiment [2] (Homo sapiens), 898 nM; in experiment [3] (setting [9]), 6420 nM; in experiment [4] (Homo sapiens, RPMI-1788), above 100000 nM; in experiment [5] (setting [10]) it was 5100 nM; in experiment [6] (Homo sapiens, RPMI-8226) it was 251 nM. For the same compound, the CD20 expression level entry with CD20 [7] and in the experiment on CD20 [8] was “significantly increased” in each case.
As to `CCC(=O)OC[C@H]1O[C@@H](c2c(O)cc3oc4cc(O)c(O)cc4c(=O)c3c2O)[C@H](OC(=O)CC)[C@@H](OC(=O)CC)[C@@H]1OC(=O)CC` [Compound M9, 2′,3′,4′,6′-tetra-O-propionylmangiferin], the IC50 was 210 nM in experiment [1]; 227 nM in experiment [2] (Homo sapiens); 696 nM in experiment [3] (setting [9]); above 100000 nM in experiment [4] (Homo sapiens, RPMI-1788); 620 nM in experiment [5] (setting [10]); 69 nM in experiment [6] (Homo sapiens, RPMI-8226). The CD20 expression level entry in the experiment on CD20 [7] and with CD20 [8] was “significantly increased” in each case.
With `CCCC(=O)OC[C@H]1O[C@@H](c2c(OC(=O)CCC)cc3oc4cc(OC(=O)CCC)c(OC(=O)CCC)cc4c(=O)c3c2OC(=O)CCC)[C@H](OC(=O)CCC)[C@@H](OC(=O)CCC)[C@@H]1OC(=O)CCC` [Compound M11, 1,3,2′,3′,4′,6,6′,7-octa-O-butyrylmangiferin], the IC50 in experiment [1] was 1910 nM; in experiment [2], 698 nM; in experiment [3] (cell viability), 3210 nM; in experiment [4] it was above 100000 nM; in experiment [5] (cell viability), 970 nM; in experiment [6], 169 nM. The CD20 expression level result in the experiment with CD20 [7] and with CD20 [8] was “significantly increased” each time.
With `CCCC(=O)OC[C@H]1O[C@@H](c2c(O)cc3oc4cc(O)c(O)cc4c(=O)c3c2OC(=O)CCC)[C@H](OC(=O)CCC)[C@@H](OC(=O)CCC)[C@@H]1OC(=O)CCC` [Compound M12, 1,2′,3′,4′,6-penta-O-butyrylmangiferin], the IC50 in experiment [1] was determined as 210 nM; in experiment [2] (Homo sapiens), 657 nM; in experiment [3] (setting [9]), 291 nM; in experiment [4] (Homo sapiens, RPMI-1788), 75000 nM; in experiment [5] (setting [10]), 89 nM; in experiment [6] (Homo sapiens, RPMI-8226), 91 nM. Further, the CD20 expression level result in the experiment with CD20 [7] and in the experiment with CD20 [8] was “significantly increased” each time.
On to `CCCC(=O)OC[C@H]1O[C@@H](c2c(O)cc3oc4cc(O)c(O)cc4c(=O)c3c2O)[C@H](OC(=O)CCC)[C@@H](OC(=O)CCC)[C@@H]1OC(=O)CCC` [Compound M14, 2′,3′,4′,6′-tetra-O-butyrylmangiferin], for which the IC50 in experiment [1] turned out to be 80 nM; in experiment [2] (Homo sapiens), 85 nM; in experiment [3] (setting [9]), 121 nM; in experiment [4] (Homo sapiens, RPMI-1788) it was 69000 nM; in experiment [5] (setting [10]), 29 nM; in experiment [6] (Homo sapiens, RPMI-8226), 51 nM. The CD20 expression level entry in the experiment on CD20 [7] and with CD20 [8] was “significantly increased” each time.
`CC(C)(C)C(=O)OC[C@H]1O[C@@H](c2c(O)cc3oc4cc(O)c(O)cc4c(=O)c3c2O)[C@H](OC(=O)C(C)(C)C)[C@@H](OC(=O)C(C)(C)C)[C@@H]1OC(=O)C(C)(C)C` [Compound M15, 2′,3′,4′,6′-tetra-O-pivaloylmangiferin]: the IC50 in experiment [1] worked out at 170 nM; in experiment [2] (Homo sapiens) it was 96 nM; in experiment [3] (setting [9]) it was 183 nM; in experiment [4] (Homo sapiens, RPMI-1788), 71000 nM; in experiment [5] (setting [10]), 91 nM; in experiment [6] (Homo sapiens, RPMI-8226), 71 nM. Also, the CD20 expression level result in the experiment with CD20 [7] and in the experiment on CD20 [8] was “significantly increased” in each case.
On to `CCCCO[C@@H]1[C@@H](OCCCC)[C@H](c2c(O)cc3oc4cc(O)c(O)cc4c(=O)c3c2O)O[C@H](COC(=O)CCC)[C@H]1OC(=O)CCC` [Compound M16, 2′,3′-di-O-butyl-4′,6′-di-O-butyrylmangiferin], for which the IC50 in experiment [1] was 70 nM; in experiment [2] (Homo sapiens), 79 nM; in experiment [3] (setting [9]), 91 nM; in experiment [4] (Homo sapiens, RPMI-1788) it was 58000 nM; in experiment [5] (setting [10]), 21 nM; in experiment [6] (Homo sapiens, RPMI-8226), 42 nM. Also, the CD20 expression level entry with CD20 [7] and in the experiment with CD20 [8] was “significantly increased” each time.
As to `O=c1c2cc(O)c(O)cc2oc2cc(O)cc(O)c12` [norathyriol, reference compound], the IC50 turned out to be 1500 nM in experiment [1]; 8600 nM in experiment [2] (Homo sapiens); 8870 nM in experiment [3] (setting [9]); 5800 nM in experiment [5] (setting [10]); 632 nM in experiment [6] (Homo sapiens, RPMI-8226).
